Consider eight compounds from US20260345485A1, “INTRATHECAL NANOPARTICLE DELIVERY FOR TREATMENT OF LEPTOMENINGEAL TUMORS WITH CORE-SHELL PARTICLES MADE OF HYPERBRANCHED POLYGLYCEROL AND POLYLACTIC ACID” (priority 2022, published 2026).

Data set [1] can be described thus: tolerability / maximum tolerated dose after intrathecal dosing. On the procedure:
To investigate toxicity, healthy female nude mice were first administered a specific dose of either free BMN-673 or BMN-NPs ranging from 0.03 mg/kg to 1.25 mg/kg. The mice were monitored for weight-loss or other signs of distress, and if the dose was well tolerated, 4 additional mice were dosed and monitored (n=5).
Toxicology studies were conducted in healthy female nude mice to characterize the safety of BMN-NPs in vivo. […] Increasing doses of either BMN-NP or free BMN-673 were administered to animals. Body weight loss and overall animal health were closely monitored.

Data set [2] relates to DAOY, D341, and D283 cells. In words: drug combination synergy (Loewe model, CellTiter-Glo viability). Type of data set: cell-based. For orientation: Cellular ATP, detected with luciferase, serves as a proxy for viable cell number.
In data set [3] the test system is DAOY cells. The experiment in a line: DAOY intracisternal xenograft, twice-weekly treatment. Particulars: 0.25 mg/kg BMN-NPs or 0.03 mg/kg free BMN-673. On the procedure:
DAOY cells (ATCC) were inoculated in 8 week J:Nu female mice at 10^5 cells suspended in 6 μL of DPBS. Tumor growth was followed by luminescence imaging twice a week, implantation. For luminescence imaging, mice were injected with 200 μL of a solution of D-Luciferin (15 mg/ml, Caliper Life Science) and imaged 5 minutes after injection using an IVIS200 in vivo imaging system (Xenogen, Caliper Life Science). An image showing light intensity (photons/second) was generated and the signal in each mouse was quantified using Living Image 4.0 software (Xenogen). On day 7 after tumor injection, all mice were randomized and treated with BMN-673 loaded NPs or free BMN-673 drug either once a week or bi-weekly for two weeks. Tumors were monitored for regression or progression with BLI, and left until neurological symptoms appeared or humane endpoint was reached (slow motion, >20% weight lose).
This study was repeated using twice-weekly dosing of 0.25 mg/kg of BMN-NPs or 0.03 mg/kg for free BMN-673 (FIGS. 7D-7F).

The next data set deals with D341 cells. In words: D341 xenograft with existing spinal metastasis. Type of data set: in vivo, mice. On the procedure: In the D341 model, most mice develop spinal metastasis that is detectable by IVIS imaging within 7 days of inoculation, so it was tested whether BMN-NPs and free BMN were efficacious against existing spinal metastasis by starting treatment at day 7 in the presence of leptomeningeal metastasis. […] This therapy was improved with a temozolomide (TMZ) combination approach. The synergy between TMZ and PARPi is well documented in vitro, as PARP1 trapping sensitizes cells to the DNA methylation mechanism of TMZ, but in vivo, a reduction in the PARPi dose is necessary to prevent acute toxicity.

For another data set, the system named is PARP1. To be noted: cited from earlier work.
Data set [4] is described as follows: hematological toxicity after intrathecal dosing. Particulars: for blood cell counts: at MTD. On the procedure:
For hematological analysis, healthy nude mice (n=5 per time point) were administered either free BMN-673 (0.05 mg/kg) or BMN-NPs (0.5 mg/kg). At 3 days and 7 days post administration, 100 μL of blood was drawn via cardiac puncture using 15 μL EDTA-coated tubes. Levels of blood cell counts were measured using HEMA VET® HV950 multispecies hematologic analyzer (Drew Scientific, Oxford, CT, USA). Spleens and livers were harvested, fixed in formalin overnight, and H&E stained for histopathological evaluation.
To further test systemic toxicity differences between BMN-NPs and free BMN, red blood cells, white blood cells, and platelet levels were monitored in mice at day 3 and day 7 following two bi-weekly administrations at MTD (FIG. 5C).

Data set [5] has as its system DAOY cells. In words: DAOY intracisternal xenograft, single-dose treatment. Type of data set: in vivo, J:Nu mice. To be noted: single dose 0.1 mg/kg. On the procedure:
Intra-cisternal transplantation of DAOY cells stably expressing luciferase was used for in vivo studies. A surgical catheter was implanted into their cisterna magna, and used for both cellular implantation and IT dosage during treatment. Mice were treated when their tumoral luminescence burden was detectable at […] BLI (unit), 7 days post-implantation. Mice were treated once, at the same dose level of 0.1 mg/kg with either BMN NPs or free BMN-673 (FIG. 7A).

The format of data set [6] is in vivo. To be noted: i.v., after 20 minutes, tumor-bearing mice. On the procedure: CNS retention of ^89Zr-DFO-NPs was assessed in tumor-bearing mice. A leptomeningeal metastatic medulloblastoma model was administered DAOY cells stably expressing luciferase by IT injection into the CM. […] Two mice were injected intravenously with Gd-DTPA, and imaged via MRI after 20 minutes.

Data set [7] relates to medulloblastoma cell line D283. To be noted: 1 micromolar Olaparib with radiation; cited from earlier work.
The subject of data set [8] is breast, prostate and ovarian cancer. Particulars: clinical trials; cited from earlier work.
Setting [9] is: combined with BMN-673, across all cell lines.

Where two headings read alike, the source gives them in different places.

Usually LD50 stands for the dose expected to kill half of the subjects tested. The low end stands for greater toxicity, the high end for lower toxicity. Regarding `Cn1ncnc1[C@H]1c2n[nH]c(=O)c3cc(F)cc(c23)N[C@@H]1c1ccc(F)cc1` [BMN-673, talazoparib], the body weight loss entry is listed as “less than 10%” in [1] (0.03 mg/kg twice a week, IT) and “less than 15%” in data set [1] (0.05 mg/kg, single IT dose). Further, the “dose above which toxicity-related symptoms developed (lethargy, labored breathing, death)” value in data set [1] (IT) was “greater than 0.06 mg/kg”. The LD50 in data set [1] (mouse, in vivo) was determined as 0.125 mg/kg. Further, in [1] (mouse, in vivo), the MTD came to 0.05 mg/kg. Besides, the “lethal dose (lethal at any dose at or higher than)” value in data set [1] (single IT dose, J:Nu mice) was at least 0.06 mg/kg. For the same compound, the “synergy with TMZ (combinatorial index)” value in data set [2] (Loewe synergy model, with temozolomide) is on record as “high levels of synergy”. Also, the “cell viability compared to BMN-673 alone” value in data set [2] (incremental log-fold increases in BMN-673 in presence of TMZ) is “decreased viability”. Also, the tumor response entry in the data set with DAOY cells [3] is listed as “tumors continued to progress with treatment of free drug”. Moreover, the “effect on cerebral and spinal tumor burden” value in the data set with D341 cells (four repeat doses, free BMN-673 at equitoxic dose, start day 7) is on record as “no effect”. Also, in the data set on D341 cells (in combination with temozolomide), the tolerability result is “not tolerated at even the lowest doses of BMN-673”. The PARP1 trapping result with PARP1 was “potent PARP1 trap”. The blood cell counts entry in data set [4] (3 days post-treatment) was “a decrease in all leukocytes except for monocytes, and also showed a reduction in platelet count”; in data set [4] (by 7 days) it was “did not show an improvement outside of basophil count”. For the same compound, in [4] (two bi-weekly administrations, 0.05 mg/kg/week free BMN, day 3 to day 7), the blood cell levels result is “progressive leukopenia and thrombocytopenia at day 3 which did not improve appreciably at day 7”. The “body weight loss versus BMN-NP group” value in the data set on DAOY cells [5] was “lost significantly more weight than the BMN-NP group”. The “mice with tumor reduction benefit” value in the data set with DAOY cells [5] is on record as “one out five”.
For `O=P1(N(CCCl)CCCl)NCCCO1` (stereo not shown) [Cyclophosphamide], the “synergy with BMN-673” value in data set [2] is on record as “did not show consistent synergist action”.
Turning to `O=C(O)CN(CCN(CC(=O)O)CC(=O)O)CCN(CC(=O)O)CC(=O)O.[Gd+3]` [Gd-DTPA], the “signal in the brain by MRI” value in data set [6] was “no detectable Gd-DTPA signal in the brain”.
For `CCc1c2c(nc3ccc(OC(=O)N4CCC(N5CCCCC5)CC4)cc13)-c1cc3c(c(=O)n1C2)COC(=O)[C@]3(O)CC` [Irinotecan], the “synergy with BMN-673” value in [2] (setting [9]) is “did not show consistent synergist action”.
Still for that read-out and setting: then `O=NN(CCCl)C(=O)NC1CCCCC1` [Lomustine], with “did not show consistent synergist action”.
For `O=C(c1cc(Cc2n[nH]c(=O)c3ccccc23)ccc1F)N1CCN(C(=O)C2CC2)CC1` [Olaparib, olaparib], the “DNA double stranded breaks” value in data set [7] is “high levels of DSB”. For the same compound, the “anti-tumour effect and side effects” value in data set [8] is “anti-tumour effect and side effects of grade 1 or 2”.
In the case of `CC[C@@]1(O)C(=O)OCc2c1cc1n(c2=O)Cc2cc3c(CN(C)C)c(O)ccc3nc2-1` [Topotecan], in data set [2] (setting [9]), the “synergy with BMN-673” value is listed as “did not show consistent synergist action”.
As for `C[C@]1(c2nc3c(C(N)=O)cccc3[nH]2)CCCN1` [veliparib], in the data set with PARP1, the PARP1 trapping entry is given as “relatively poor PARP1 trapping ability”.
